The target in the test is T1, Dual specificity protein kinase TTK (Homo sapiens, UniProt P33981).
T1 sequence (P33981 whole entry): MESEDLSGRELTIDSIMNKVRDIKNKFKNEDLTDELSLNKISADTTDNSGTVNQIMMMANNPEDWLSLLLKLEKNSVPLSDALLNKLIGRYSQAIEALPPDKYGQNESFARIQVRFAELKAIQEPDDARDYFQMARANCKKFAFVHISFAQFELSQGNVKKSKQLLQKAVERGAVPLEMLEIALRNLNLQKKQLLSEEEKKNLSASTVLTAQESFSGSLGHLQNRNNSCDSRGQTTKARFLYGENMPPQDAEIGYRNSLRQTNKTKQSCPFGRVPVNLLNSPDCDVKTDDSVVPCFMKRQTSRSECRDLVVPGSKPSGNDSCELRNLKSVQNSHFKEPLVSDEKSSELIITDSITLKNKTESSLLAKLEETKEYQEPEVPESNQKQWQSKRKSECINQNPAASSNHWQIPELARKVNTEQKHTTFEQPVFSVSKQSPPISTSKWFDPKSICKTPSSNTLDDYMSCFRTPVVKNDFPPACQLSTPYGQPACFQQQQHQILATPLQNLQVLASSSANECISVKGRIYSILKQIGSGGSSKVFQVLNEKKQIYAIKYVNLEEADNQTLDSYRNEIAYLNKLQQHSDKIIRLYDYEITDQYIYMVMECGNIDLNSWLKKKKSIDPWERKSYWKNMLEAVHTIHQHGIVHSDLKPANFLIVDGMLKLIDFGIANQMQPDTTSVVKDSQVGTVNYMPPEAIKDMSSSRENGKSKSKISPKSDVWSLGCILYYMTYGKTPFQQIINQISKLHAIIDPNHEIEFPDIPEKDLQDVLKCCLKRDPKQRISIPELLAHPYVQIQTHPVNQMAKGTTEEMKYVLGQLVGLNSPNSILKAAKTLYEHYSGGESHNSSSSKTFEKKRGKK
In words: Enzyme Assay: The inhibitory activity of compounds against AURKA, AURKB, JAK1, JAK2 and JAK3 was determined in Z′-LYTE® assays run by ThermoFisher Scientific as part of their SelectScreen Biochemical Kinase Profiling Service. The Z′-LYTE biochemical assay format employs a fluorescence-based, coupled-enzyme format and is based on the differential sensitivity of phosphorylated and ….

This passage reports IC50 results from ChEMBL document CHEMBL5727296, “Amino-triazolopyridine compounds and their use in treating cancer” (2019).

Description: Enzyme Assay: The inhibitory activity of compounds against AURKA, AURKB, JAK1, JAK2 and JAK3 was determined in Z′-LYTE® assays run by ThermoFisher Scientific as part of their SelectScreen Biochemical Kinase Profiling Service. The Z′-LYTE biochemical assay format employs a fluorescence-based, coupled-enzyme format and is based on the differential sensitivity of phosphorylated and non-phosphorylated peptides to proteolytic cleavage. The peptide substrate is labeled with two fluorophores one at each end that make up a FRET pair. In the primary reaction, the kinase transfers the gamma-phosphate of ATP to a single tyrosine, serine or threonine residue in a synthetic FRET-peptide. In the secondary reaction, a site-specific protease recognises and cleaves non-phosphorylated FRET-peptides. Phosphorylation of FRET-peptides suppresses cleavage by the Development Reagent. Cleavage disrupts FRET between the donor (i.e., coumarin) and acceptor (i.e., fluorescein) fluorophore on the FRET-peptide, whereas uncleaved, phosphorylated FRET-peptides maintain FRET. A ratiometric method, which calculates the ratio (the Emission Ratio) of donor emission to acceptor emission after excitation of the donor fluorophore at 400 nm, is used to quantitate reaction progress. Both cleaved and uncleaved FRET-peptides contribute to the fluorescence signals and therefore to the Emission Ratio. The extent of phosphorylation of the FRET-peptide can be calculated from the Emission Ratio.

Take `Cc1cc2ncnn2cc1Nc1ncc2c(n1)n([C@H]1CC[C@@](C)(O)CC1)c(=O)n2C`: half-maximal inhibition (IC50) was put at 501 nM.
